Measurements taken from article PMC4491662, “Synthesis, Biological Evaluation and Molecular Modeling of Substituted Indeno[1,2-b]indoles as Inhibitors of Human Protein Kinase CK2” (Pharmaceuticals, 2015).

Legend:
human CK2 holoenzyme [1] = target: T1, human CK2 holoenzyme (Homo sapiens, UniProt P68400); conditions: read-out: IC50 ± SD, assay buffer with 100 µM ATP
[2] = Cytotoxicity WST-1 assay, statements over the four cell lines; assay type: cell-based; conditions: mouse (NIH-3T3, MEF) and human (WI-38, HEK293T), WST-1, cell line not specified, read-out: EC50 (cytotoxic activity, over the cell lines)
Source text: (§1) Four cell lines of various origins were used to evaluate the cytotoxicity of our target compounds 5–7. The selected cell lines were (i) NIH-3T3, a cell line originally established from the primary mouse embryonic fibroblast cells, (ii) MEF, primary mouse embryonic fibroblasts (used at their early passages) prepared as previously described, (iii) WI-38, a human diploid cell line derived from normal embryonic lung tissue, and (iv) HEK293T, a transformed variant of the human embryonic kidney cell line HEK293. After 96 h, cytotoxicity was evaluated using the WST-1 assay. […] Seventeen compounds were evaluated on the cell lines and then compared to TBB used as a standard. […]. All cells were grown in DMEM medium supplemented with 10% fetal calf serum, glutamine (2 mM), penicillin (100 U/mL), and streptomycin (50 μg/mL) at 37 °C under a humidified 5% CO2 atmosphere (Gibco). The assays were performed in sterile 96-wells microtiter plates (Falcon). Cells were plated at 500 (NIH-3T3), 750 (WI-38) or 1000 (MEF; HEK293T) cells/100 µL/well. Drug solutions (10 μL per well) of appropriate concentration (prepared by dilution in the culture medium from 2 mM stock acetonitrile solution) were added 24 h after cell seeding. For ellagic acid and emodin, DMSO was used to prepare the stock solution. After 96 h, the cytotoxicity is evaluated using the Cell Proliferation Reagent WST-1 following the procedure described by the manufacturer (Roche Applied Science). The drugs were assayed at 10, 5, 1, 0.2 and 0.04 µM in triplicate. The vehicle was used as control. The experiments were repeated three times.

human CK2 holoenzyme [3] = target: T1, human CK2 holoenzyme; experiment: biochemical; conditions: average percent inhibition at 10 µM
MEF = experiment: Cytotoxicity WST-1 assay on MEF; assay type: cell-based, mouse; conditions: Mus musculus, 96 h, read-out: EC50 in µM ± SD
Source text: as §1

HEK293T = experiment: Cytotoxicity WST-1 assay on HEK293T; assay type: cell-based, human; conditions: Homo sapiens, HEK-293T, 96 h, read-out: EC50 in µM ± SD
Source text: as §1

WI-38 = experiment: Cytotoxicity WST-1 assay on WI-38; assay type: cell-based, human; conditions: Homo sapiens, WI-38, 96 h, read-out: EC50 in µM ± SD
Source text: as §1

NIH-3T3 = experiment: Cytotoxicity WST-1 assay on NIH-3T3; assay type: cell-based, mouse; conditions: Mus musculus, NIH3T3, 96 h, read-out: EC50 in µM ± SD
Source text: as §1

[4] = tested on: tumor cell lines (5637, SISO, KYSE-70, MCF-7, LCLC, A427); conditions: cited from earlier work

T1 sequence (P68400 whole entry): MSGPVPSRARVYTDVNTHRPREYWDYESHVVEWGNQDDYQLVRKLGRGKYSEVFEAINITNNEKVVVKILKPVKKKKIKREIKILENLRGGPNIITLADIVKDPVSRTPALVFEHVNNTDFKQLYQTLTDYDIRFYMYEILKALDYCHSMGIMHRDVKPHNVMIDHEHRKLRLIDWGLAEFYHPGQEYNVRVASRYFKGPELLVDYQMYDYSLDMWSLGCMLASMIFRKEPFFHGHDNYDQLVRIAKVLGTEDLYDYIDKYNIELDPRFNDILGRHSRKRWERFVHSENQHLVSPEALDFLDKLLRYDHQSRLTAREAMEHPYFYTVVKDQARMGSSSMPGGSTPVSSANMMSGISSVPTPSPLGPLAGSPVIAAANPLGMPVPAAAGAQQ
T1 sequence (P67870 whole entry partner): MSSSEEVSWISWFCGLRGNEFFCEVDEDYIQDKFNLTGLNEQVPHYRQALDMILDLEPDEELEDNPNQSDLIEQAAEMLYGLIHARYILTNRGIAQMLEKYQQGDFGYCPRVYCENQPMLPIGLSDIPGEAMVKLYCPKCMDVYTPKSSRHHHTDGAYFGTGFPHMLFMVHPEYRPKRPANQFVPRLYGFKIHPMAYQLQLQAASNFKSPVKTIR

Structure (SMILES) | IC50 (human CK2 holoenzyme [1]) [µM] | EC50 at 96 h [2] [µM] | inhibition at 10 µM (human CK2 holoenzyme [3]) [%] | EC50 (MEF) [µM] | EC50 (HEK293T) [µM] | EC50 (WI-38) [µM] | EC50 (NIH-3T3) [µM] | growth of tumor cell lines [4]
Cc1cc(=O)c2c(c1=O)c1c(=O)c3ccccc3c1n2C(C)C [Compound 7f, 5-Isopropyl-8-methyl-5H-indeno[1,2-b]indole-6,9,10-trione] | 4.9 ± 0.54 | 0.4 to 8.8 | 72 | > 10 | 4.4 ± 2.2 | > 10 | > 10 | –
CC(C)n1c2c(=O)ccc(=O)c2c2c(=O)c3ccccc3c21 [Compound 7h, 5-isopropyl-5H-indeno[1,2-b]indole-6,9,10-trione] | – | – | – | – | – | – | – | inhibited the growth
